Non-standard residues stand in square brackets, D forms with d. No end group written: not given here. hTyr = N[C@@H](CCc1ccc(O)cc1)C(=O)O; hPhe = N[C@@H](CCc1ccccc1)C(=O)O; Phg = N[C@H](C(=O)O)c1ccccc1; Ava = NCCCCC(=O)O; βAla = NCCC(=O)O
Legend:
[1] = biological target: δ receptors, mouse vas deferens (MVD) (Mus musculus, UniProt P32300); experiment: mouse vas deferens (MVD) in vitro functional assay; conditions: for MVD observed percent efficacy at 10 μM: value in brackets; for MVD functional activity class / EC50: mouse vas deferens; for EC50: read-out: In Vitro Functional Assay [ED50 in μM] MVD, rhenium-complexed peptides
[2] = test system: μ receptors, guinea pig ileum (GPI); experiment: guinea pig ileum (GPI) in vitro functional assay; conditions: for EC50: read-out: In Vitro Functional Assay [ED50 in μM] GPI, rhenium-complexed peptides; for EC50 / GPI functional activity class: guinea pig ileum; for GPI observed percent efficacy at 10 μM: value in brackets
κ opiate receptor = κ opiate receptor (Cavia porcellus, UniProt P41144); experiment: κ receptor binding assay, guinea-pig brain membrane, 3H-U69593 displacement; conditions: read-out: Receptor Binding Assay [Ki in μM] Kappa Receptor
Chain of κ opiate receptor (P41144 whole entry): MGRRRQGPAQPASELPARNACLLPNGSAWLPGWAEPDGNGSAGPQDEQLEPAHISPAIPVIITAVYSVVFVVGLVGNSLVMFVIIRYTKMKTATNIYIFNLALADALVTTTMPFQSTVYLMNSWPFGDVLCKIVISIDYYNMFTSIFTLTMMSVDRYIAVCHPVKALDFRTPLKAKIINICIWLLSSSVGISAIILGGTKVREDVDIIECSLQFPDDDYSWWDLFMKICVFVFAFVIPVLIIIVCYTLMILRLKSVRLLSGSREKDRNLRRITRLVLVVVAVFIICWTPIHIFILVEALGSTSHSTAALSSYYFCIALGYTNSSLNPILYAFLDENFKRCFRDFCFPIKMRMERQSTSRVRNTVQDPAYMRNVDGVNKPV

Chain of δ receptors, mouse vas deferens (MVD) (P32300 whole entry): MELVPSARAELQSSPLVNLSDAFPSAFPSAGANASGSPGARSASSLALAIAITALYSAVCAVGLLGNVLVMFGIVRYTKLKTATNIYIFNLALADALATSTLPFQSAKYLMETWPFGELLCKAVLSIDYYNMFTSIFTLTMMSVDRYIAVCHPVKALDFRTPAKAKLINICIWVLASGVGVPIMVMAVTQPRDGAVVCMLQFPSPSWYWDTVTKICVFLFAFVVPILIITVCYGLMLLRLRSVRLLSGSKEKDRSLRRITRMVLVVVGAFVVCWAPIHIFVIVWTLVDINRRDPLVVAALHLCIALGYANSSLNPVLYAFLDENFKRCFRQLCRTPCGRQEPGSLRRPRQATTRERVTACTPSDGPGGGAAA

## (p-OH)—C6H4(CH2)2—NH—CO—CH(NH2)—(CH2)2—CO-Gly-Phe-D-Cys-NH2
[1]
  MVD observed percent efficacy at 10 μM: 9%

## HTyr-β-Ala-Gly-Phe-Cys-NH2 ([hTyr][βAla]GFC-NH2; also: rhenium complex)
[1]
  MVD observed percent efficacy at 10 μM: 30%

## HTyr-β-Ala-Gly-Phe-D-Cys-NH2
[1]
  MVD observed percent efficacy at 10 μM: 11%

## Leu-Enkephalin [reference compound]
[2]
  EC50: 0.246 µM

## Lys-Tyr-Cys-OH
[2]
  GPI observed percent efficacy at 10 μM: 34%
[1]
  MVD observed percent efficacy at 10 μM: 41%

## NH2(CH2)4—CO-Phe-Asp-Cys-HTyr-NH2 ([Ava]FDC[hTyr]-NH2; also: rhenium complex)
[1]
  MVD observed percent efficacy at 10 μM: 20%

## Tyr-Ala-Cys-HPhe-NH2 (YAC[hPhe]-NH2; also: rhenium complex)
[2]
  GPI functional activity class: WPA
[1]
  MVD functional activity class: WPA

## Tyr-Ala-Cys-Phe-NH2 (YACF-NH2; also: rhenium complex)
[2]
  GPI functional activity class: WPA
[1]
  MVD functional activity class: WPA

## Tyr-Ala-Cys-Phg-NH2 (YAC[Phg]-NH2; also: rhenium complex)
[2]
  GPI functional activity class: WPA

## Tyr-Ala-Phe-Cys-OH (YAFC-OH; also: rhenium complex)
[2]
  GPI observed percent efficacy at 10 μM: 8%
[1]
  MVD observed percent efficacy at 10 μM: 48%

## Tyr-Cys-Gly-Cys-NH2 (YCGC-NH2; cysteine pairing not given here; also: rhenium complex)
[2]
  GPI observed percent efficacy at 10 μM: 14%
[1]
  MVD observed percent efficacy at 10 μM: 34%

## Tyr-Gly-Cys-HPhe-NH2 (YGC[hPhe]-NH2; also: rhenium complex)
[2]
  GPI functional activity class: WPA
[1]
  MVD functional activity class: WPA

## Tyr-Gly-Cys-Phg-NH2 (YGC[Phg]-NH2; also: rhenium complex)
[2]
  GPI functional activity class: WPA
[1]
  MVD functional activity class: WPA

## Tyr-Lys-Cys-OH
[2]
  GPI observed percent efficacy at 10 μM: 41%
[1]
  MVD observed percent efficacy at 10 μM: 48%

## Tyr-Val-Cys-Phe-NH2 (YVCF-NH2; also: rhenium complex)
[1]; ED30 instead of ED50
  MVD [ED30]: 1.42 ± 0.21 µM

## Tyr-[dK]-Cys-OH
[2]
  GPI observed percent efficacy at 10 μM: 57%
[1]
  MVD observed percent efficacy at 10 μM: 9%

## Tyr-β-Ala-Gly-Phe-Cys-NH2 (Y[βAla]GFC-NH2; also: rhenium complex)
[1]
  MVD observed percent efficacy at 10 μM: 22%

## YAGFC [Tyr-Ala-Gly-Phe-Cys-NH2]
[2]
  EC50: > 10 µM
[1]
  EC50: > 10 µM

## YCGFC [Tyr-Cys-Gly-Phe-Cys-NH2]
[2]
  EC50: 0.612 µM
κ opiate receptor
  Ki: 2.1 µM

## YC[dF]G-NH2
[2]
  EC50: > 10 µM
[1]
  EC50: > 10 µM

## YGCF [Tyr-Gly-Cys-Phe-NH2]
[2]
  EC50: > 10 µM
[1]
  EC50: 1.35 µM

## YGGCF [Tyr-Gly-Gly-Cys-Phe-NH2]
[2]
  EC50: > 10 µM
[1]
  EC50: > 10 µM

## YG[dF]C-NH2
[2]
  EC50: > 10 µM
[1]
  EC50: > 10 µM

## Y[dA]CF-NH2
[2]; ED40 instead of ED50
  GPI [ED40]: 3.06 ± 0.29 µM
[1]
  MVD observed percent efficacy at 10 μM: 16%

## Y[dK]CF
[2]
  EC50: 3.03 ± 0.43 µM

## Y[βAla]FGC-OH
[2]
  GPI observed percent efficacy at 10 μM: 51%
[1]
  MVD observed percent efficacy at 10 μM: 17%

## Y[βAla]GF[dC]-NH2
[1]
  MVD observed percent efficacy at 10 μM: 30%

## [dK]-Tyr-Cys-OH
[2]
  GPI observed percent efficacy at 10 μM: 28%
[1]
  MVD observed percent efficacy at 10 μM: 18%
